Assay results reported in ChEMBL document CHEMBL2331473, “Two-component covalent inhibitor” (Bioorg Med Chem, 2013).
Activity calls are given as the source filed them. The calls are words filed in the database; no cut-off is given here.

Key:
Tequatrovirus T4 [1] = test: (§1) Inhibition of Enterobacteria phage T4 DNA polymerase using biotin-labeled oligonucleotide hairpin substrate containing pre-reactive group at 3'-end assessed as loss of hairpin substrate elongation product at 10 uM incubated for 15 mins by PAGE method and filter binding assay
Tequatrovirus T4 [2] = test: as §1, with “mins in presence of 4000 fold-excess of non-specific T7 RNA polymerase” for “mins”

With `O=C(CCCc1ccc2ccc3cccc4ccc1c2c34)NC/C=C/c1cn([C@H]2C[C@H](O)[C@@H](COP(=O)(O)OP(=O)(O)OP(=O)(O)O)O2)c(=O)[nH]c1=O` the inhibition (Tequatrovirus T4 [1]) was 87% and the inhibition (Tequatrovirus T4 [2]) was “Active”.
